Assay results as given in ChEMBL document CHEMBL5096153, “Spirocyclic Scaffolds in Medicinal Chemistry” (J Med Chem, 2021).

System: Influenza A virus
Assay: Antiviral activity against drug-resistant Influenza A virus A/M2-V27A mutant assessed as viral growth inhibition
Type: functional, organism-based

NC1CC[Si]2(CCCC2)CC1
IC50: 96.3 µM

NC1CCC2(CCCC2)CC1
IC50: 319 µM
